# Results reported in ChEMBL document CHEMBL1130568, “Antibody-mediated regio- and enantioselective resolution of a glycerol derivative” (Bioorg Med Chem Lett, 1997).
# Experiment: Kinetic parameter for hydrolysis of 1 by Antibody 2D10 after addition of compound 12
# Format: ADME
compound,measurement,value
CC(=O)O[C@@H](COCc1ccc([N+](=O)[O-])cc1)COP(=O)(O)CCCCCC(=O)O,Ki,2800 nM
